Results on 5 molecules are retold here after patent US5607967A, “Treatment of alzheimer's disease with 5-(tetradecyloxy)-2-furan carboxylic acid” (Merck & Co., Inc., priority 1994, dated 1997).

For data set [1], the system named is PC12 cells. Briefly: Neurite differentiation of PC12 cells. The conditions noted are these: NGF alone (100 ng/mL), 4 days. The class given is cell-based. The procedure:
To further study the influence of TOFA on the nervous system, we tested the effect of TOFA on the differentiation of PC12 cells. PC12 cells were plated at a density of approximately 100-200/mm^2 on collagen coated plates or dishes in RPMI medium supplemented with 10% horse serum, 5% fetal calf serum, […] streptomycin, 50 U/mL penicillin in a water saturated atmosphere of 95% air and 5% CO2, at 37° C. overnight. Medium was replaced with fresh RPMI containing 1.5% serum, 100 ng/mL NGF and the indicated concentration of TOFA or an equivalent volume of vehicle (DMSO) giving a final concentration of 0.1% DMSO.
At different time points during the treatment, cells were photographed or fixed with 10% formalin. Morphology was examined after four days of treatment with TOFA or vehicle (DMSO). The number of cells beating neurites and average length of neurites were determined with the aid of the Bioquant imaging system. […] However, as depicted in Table 6 below, NGF alone induced a 15% increase in the number of cells bearing neurites and these outgrowths reached a mean length of 20 μm. Treatment with NGF and TOFA increased the percentage of cells beating neurites to 78%. Maximal neurite generation is observed at a concentration of 10 μM TOFA.
Cells were treated with vehicle (0.1% DMSO) or various concentrations of TOFA in the presence of 100 ng/mL NGF for 4 days, and then fixed with 10% formalin. At least eighty cells from eight wells were analyzed in each group. The results are shown as the mean ±SEM. ^a p<0.01, versus vehicle by Dunnetts test.

Data set [2] relates to GR/NER chimeric receptor. Briefly: Activation of GR/NER in CV1 cells (luciferase). The settings on record: for Fold of stimulation GR/NER: no TOFA. On the procedure: The ligand dependent transcription assays were performed as described in Example 4, using CV1 cells in place of COS cells. The transfected CV1 cells were treated with dopamine, TOFA, or with a combination of TOFA and dopamine at the indicated concentrations and tested for luciferase activity.
CV1 cells were co-transfected with the MMTV-Luciferase reporter gene (pJA358) and the GR/NER chimeric receptor as described in Example 4. The cells were treated with increasing amount of the dopamine D1 receptor antagonist SCH 23390 with or without 50 μM […] dopamine.

Data set [3] has as its system GR/NER chimeric receptor. Briefly: Activation of GR/NER in COS-7 cells (luciferase). The settings on record: for Fold of stimulation GR/NER: no TOFA. On the procedure:
The ligand dependent transcription assays were performed as described in Example 4. The transfected COS cells were treated with dopamine, TOFA, or with the combination of TOFA and dopamine at the indicated concentrations and tested for luciferase activity.

In data set [4] the test system is GR/NER chimeric receptor. Briefly: Ligand dependent transcription assay, GR/NER chimeric receptor with MMTV-luciferase reporter. Format: cell-based, human. On the procedure:
To search for putative ligands for the NER receptor, the chimeric receptor GR/NER was prepared. […] Chimeric receptors were prepared in which the amino terminal portion of the mouse glucocorticoid receptor (mGR) that includes the DNA binding domain was fused to the putative ligand binding domains of the nuclear receptor NER to form the respective chimeric receptor GR/NER. The cDNA sequences coding for amino acid residues Arg^155 and Glu^156 of the hNER receptor (Shinar et al., NER, a new member of a gene family encoding the steroid hormone nuclear receptor; GENE (in press) were convened to the Xho I restriction site, which site was later used for the ligation to the GR cDNA sequences that coded for the DNA binding domain. Thus, the amino acid residues Arg^155 and Glu^156 of the NER receptor were convened to amino acid residues Ser^155 and His^156.
The chimera was employed in ligand dependent transactivation assays with the reporter gene MMTV-luciferase, in which the luciferase cDNA is transcribed under the control of the MMTV promoter.
(§1) Similar hybrid receptors GR/NER, GR/NUC and GR/PPAR, in identical expression plasmid backgrounds were prepared essentially as described for the construction of the GR/mPPAR and GR/NUC chimeric receptors in Schmidt et al., "Identification of a new member of the steroid hormone receptor superfamily that is activated by a peroxisome proliferator and fatty acids," Mol. Endocrinol., 6(10):1634-41, 1992, and in Boie et al., "Enantioselective activation of the peroxisome proliferator-activated receptor", J. Biol. Chem. 268(8):5530-4, 1993.
(§2) Briefly, the amino terminal portion of the mouse glucocorticoid receptor (mGR), that includes the DNA binding domain was fused to the putative ligand binding domains of the nuclear receptor NER, hNUC-I (Schmidt et al., 1992), mPPAR (Issenmann and Green, 1990) to form the respective chimeric receptors GR/NER, GR/NUC and GR/PPAR. The GR/NER chimeric receptor was constructed as described for the GR/NUC and GR/PPAR hybrid receptors (Schmidt et al., 1992; Boie et al). The cDNA sequences coding for amino acids Arg^155 and Glu^156 of the NER receptor were converted to the Xho I restriction site, that was later used for the ligation to the GR cDNA sequences that coded for the DNA binding domain. Thus, converting amino acid residues Arg^155 and Glu^156 of NER receptor to amino acid residues Ser^155 and His^156.
A general note: In a reporter assay the amount or activity of a reporter protein is the signal.

The target of data set [5] is T1, GR/PPAR chimeric receptor (Mus musculus, UniProt P23204).
T1 construct: COS cells, MMTV-luciferase
T1 sequence (P23204 1-468): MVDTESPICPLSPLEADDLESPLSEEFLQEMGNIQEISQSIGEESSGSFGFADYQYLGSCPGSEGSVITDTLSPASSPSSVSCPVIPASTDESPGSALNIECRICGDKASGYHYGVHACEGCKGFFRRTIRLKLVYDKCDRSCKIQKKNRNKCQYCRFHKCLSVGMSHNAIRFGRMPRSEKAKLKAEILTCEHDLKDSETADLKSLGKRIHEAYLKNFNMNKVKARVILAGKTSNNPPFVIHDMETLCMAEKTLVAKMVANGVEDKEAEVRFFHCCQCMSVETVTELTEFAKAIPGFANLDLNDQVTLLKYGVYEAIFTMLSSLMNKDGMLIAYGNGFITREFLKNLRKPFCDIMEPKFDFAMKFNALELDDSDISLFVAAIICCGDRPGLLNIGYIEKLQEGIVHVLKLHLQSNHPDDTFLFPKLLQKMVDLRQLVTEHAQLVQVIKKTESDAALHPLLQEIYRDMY
T1 sequence (P06537 1-792 partner): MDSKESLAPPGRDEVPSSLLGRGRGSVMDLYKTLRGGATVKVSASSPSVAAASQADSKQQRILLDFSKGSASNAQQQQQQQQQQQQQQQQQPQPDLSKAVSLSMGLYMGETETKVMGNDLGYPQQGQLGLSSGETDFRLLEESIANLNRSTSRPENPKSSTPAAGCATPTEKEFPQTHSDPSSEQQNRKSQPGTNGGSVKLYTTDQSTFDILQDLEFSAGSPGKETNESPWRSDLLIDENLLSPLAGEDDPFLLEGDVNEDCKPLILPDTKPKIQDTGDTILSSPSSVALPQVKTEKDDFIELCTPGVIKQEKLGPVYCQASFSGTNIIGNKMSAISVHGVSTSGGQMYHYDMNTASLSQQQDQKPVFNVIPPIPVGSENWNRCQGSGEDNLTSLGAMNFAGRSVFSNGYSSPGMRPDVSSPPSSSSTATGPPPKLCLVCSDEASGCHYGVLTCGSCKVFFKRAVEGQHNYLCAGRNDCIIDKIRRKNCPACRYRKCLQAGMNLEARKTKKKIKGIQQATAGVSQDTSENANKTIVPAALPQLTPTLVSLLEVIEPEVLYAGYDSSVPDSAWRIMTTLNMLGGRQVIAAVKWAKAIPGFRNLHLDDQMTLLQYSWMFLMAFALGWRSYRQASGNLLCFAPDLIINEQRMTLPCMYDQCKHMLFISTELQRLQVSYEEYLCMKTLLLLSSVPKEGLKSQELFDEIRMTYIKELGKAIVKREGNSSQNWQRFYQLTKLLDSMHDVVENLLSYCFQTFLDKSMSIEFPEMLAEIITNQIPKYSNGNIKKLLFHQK
The data set is described as follows: Ligand dependent transcription assay, GR/PPAR chimeric receptor with MMTV-luciferase reporter. The class given is cell-based. The procedure: as §1, §2
The ligand transcription assay mediated by GR/PPAR in COS cells was performed as described in Example 4. The cells were treated with TOFA and Cerulenin at 0.1, 1, 10 and 100 μM.

In data set [6] the target is T2, GR/NUC chimeric receptor (Homo sapiens, UniProt Q03181).
T2 construct: transfected cells, MMTV-luciferase
T2 sequence (Q03181 1-441): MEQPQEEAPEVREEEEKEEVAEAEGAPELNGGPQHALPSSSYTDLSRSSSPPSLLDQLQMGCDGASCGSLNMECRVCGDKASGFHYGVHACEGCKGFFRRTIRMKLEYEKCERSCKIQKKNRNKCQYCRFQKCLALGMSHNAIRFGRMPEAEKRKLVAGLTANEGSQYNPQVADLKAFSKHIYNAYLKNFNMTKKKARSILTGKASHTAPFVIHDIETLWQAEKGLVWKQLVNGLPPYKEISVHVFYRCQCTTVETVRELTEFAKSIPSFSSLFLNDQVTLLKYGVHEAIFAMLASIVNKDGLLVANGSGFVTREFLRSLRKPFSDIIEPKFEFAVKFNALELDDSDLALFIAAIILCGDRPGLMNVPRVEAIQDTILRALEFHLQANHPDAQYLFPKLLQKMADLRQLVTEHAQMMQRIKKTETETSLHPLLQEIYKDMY
T2 sequence (P06537 1-792 partner): T1 sequence (P06537 1-792 partner)
Briefly: Ligand dependent transcription assay, GR/NUC chimeric receptor with MMTV-luciferase reporter. Format: cell-based. On the procedure: as §1, §2

For data set [7], the target named is T1, GR/PPAR chimeric receptor. The data set is described as follows: Ligand dependent transcription assay, GR/PPAR chimeric receptor with MMTV-luciferase reporter. Format: cell-based. The settings on record: read-out: Fold of stimulation GR/PPAR.
Data set [8] has as its target T3, human NUCI receptor (Homo sapiens, UniProt Q03181).
T3 sequence (Q03181 1-441): T2 sequence (Q03181 1-441)
Briefly: Transcription assay, native NUC-I receptor co-transfected with MMTV-luciferase reporter. The settings on record: read-out: Fold of stimulation NUC-I.
Protocol: (§3) The reporter gene was the plasmid pJA358 in which the expression of firefly luciferase is regulated by two tandem repeats of the glucocorticoid hormone response element (GRE) linked to the MMTV promoter (Boie et al., 1993).
(§4) Transient transfection of COS and CV1 cells was performed as described (Schmidt 1992). Cells were plated (1.5×10^5 in 1 mL) into 12 well dishes in phenol red-free medium supplemented with activated charcoal treated fetal calf serum. The next day 0.12 mL of DNA 10 μg/ml (5 μg receptor DNA and 5 μg reporter plasmid), as a calcium phosphate precipitate, was added to the cells. Ligands were added to the cells 30 minutes after transfection. The next day (18 hours), the cells were washed and fresh ligands added. Twenty-four hours later, cell extracts were prepared and assayed for luciferase enzyme activity using the luciferase assay system (Promega Madison, Wis.). Each transfection was performed in triplicate and the luciferase activity of each sample measured in duplicate using the AutoClinilumat (Berthold Nashua, N.H.).
(§5) The transfected cells were treated with TOFA at 2 μM, 10 μM, 20 μM, and 50 μM and oleic acid at 50 μM, and 300 μM.

For data set [9], the target named is T4, native mouse glucocorticoid receptor (Mus musculus, UniProt P06537).
T4 sequence (P06537 1-792): T1 sequence (P06537 1-792 partner)
Briefly: Transcription assay, native glucocorticoid receptor co-transfected with MMTV-luciferase reporter. The settings on record: read-out: Fold of stimulation GR.
Protocol: as §3, §4, §5

Data set [10] has as its system Dopamine D2 receptor antagonist (Haloperidol) induced catalepsy. Briefly: Haloperidol induced catalepsy (Bar method). Format: in vivo, rat. The conditions noted are these: carrier pretreatment, 24 h later 0.1 mg/kg Haloperidol.

As to NGF: nerve growth factor, in data set [1], the “Mean length of neurite outgrowths” value is 20 μm and the “Number of cells bearing neurites” value was determined as 15%.
As for `NCCc1ccc(O)c(O)c1` [Dopamine, dopamine], the “Effect on transcription mediated by GR/NER in CV1 cells” value in data set [2] is “suppressed the transcription”. In addition, the “Fold of stimulation GR/NER” value in data set [2] (dopamine 0.1 μM) stood at 1.28 ± 0.05 fold; in data set [2] (dopamine 1.0 μM), 0.88 ± 0.11 fold; in data set [2] (dopamine 10 μM) it was 0.55 ± 0.06 fold; in [2] (dopamine 100 μM) it was 0.44 ± 0.14 fold; in data set [3] (dopamine 0.1 μM, 1440 min), 1.10 ± 0.07 fold; in data set [3] (dopamine 1.0 μM) it was 0.87 ± 0.06 fold. For the same molecule, the “Fold of stimulation GR/NER” value in [3] (dopamine 10 μM, 1440 min) is on record as 0.84 ± 0.08 fold; in data set [3] (dopamine 100 μM, 1440 min), 0.87 ± 0.11 fold. Further, the “Suppression of GR/NER mediated transcription in COS-7 cells” value in data set [3] (no significant dopamine D1 receptor expression) is “suppression was not seen”.
Take `Cc1cccc(Nc2cc(Cl)nc(SCC(=O)O)n2)c1C` [WY14643, reference compound]: in data set [4], the “Expression mediated by GR/NER” value is reported as “not by the GR/NER chimera”. Moreover, in [5], the “Expression mediated by GR/PPAR” value is on record as “activated expression”.
For `CCCCCCCC/C=C\CCCCCCCC(=O)O` [Oleic Acid, oleic acid, reference compound], the “Expression mediated by GR/NER” value in data set [4] is reported as “not by the GR/NER chimera”. The “Fold of stimulation GR/NER” value in data set [4] (50 μM) came out at 0.90 ± 0.13 fold; in data set [4] (300 μM), 0.73 ± 0.21 fold. Besides, the “Expression mediated by GR/NUC” value in data set [6] was “activated expression”. In addition, the fold induction at 150 µM came to 3.42 ± 0.28 in data set [6] (read-out: Fold of stimulation GR/NUC), 0.55 ± 0.08 in data set [8] and 0.44 ± 0.17 in data set [9]. In data set [5], the “Expression mediated by GR/PPAR” value is on record as “activated expression”. In data set [7], the fold induction at 50 µM turned out to be 2.87 ± 0.2. Further, the fold induction at 300 µM in [7] was 14.69 ± 0.06.
As to `O=C(CCCN1CCC(O)(c2ccc(Cl)cc2)CC1)c1ccc(F)cc1` [Haloperidol, haloperidol, reference compound], the “Catalepsy Duration” value in [10] worked out at 20.3 ± 6.7 s.
